“And” between values parts separate entries of the source, which are not always exact repeats. Equal values may be shown once. Where a name gives a salt, the structure may show the parent alone.
Key:
CMV-EE210 cell line = experiment: Toxicity (TD50, cell viability) reported with the GFP assay; conditions: Dose at which cells are >50% viable
Experimental: The demethylating activity of non-bis-quaternary 4-anilinoquinolines were tested in a cell-based GFP (green fluorescent protein) assay. This assay has a GFP gene regulated by the CMV promoter and is sensitive to the methylation of CpG sites within the promoter. A decrease in methylation resulting from exposure to a methylation inhibitor leads to GFP expression and is readily scored. Specifically, the CMV-EE210 cell line containing the epigenetically silenced GFP transgene was used to assay for reactivation of GFP expression by flow cytometry. CMV-EE210 was made by transfecting NIH 3T3 cells with the pTR-UF/UF1/UF2 plasmid (Zolotuhin et al., 1996), which is comprised of pBS(+) (Stratagene, Inc.) containing a cytomegalovirus (CMV) promoter driving a humanized GFP gene adapted for expression in mammalian cells. After transfection, high-level GFP expressing cells were initially selected by FACS analysis and sorting using a MoFlo cytometer (Cytomation, Inc.). […] To screen for reactivation of CMV-EE210, decitabine (at […]) or a test compound (at a concentration of 30-50 μM) was added to complete medium (phenol red free DMEM (Gibco, Life Technologies) supplemented with 10% fetal bovine serum (Hyclone)). Cells were then seeded to 30% confluence (˜5000 cell/well) in 96 well plate containing the test compounds and grown for three days in at 37° C. in 5% CO2. The plates were examined under a fluorescent microscope using a 450-490 excitation filter (13 filter cube, Leica, Deerfield Ill.). Wells were scored g1 positive if 10% of viable cells express GFP, g2 positive if 30% of viable cells express GFP and g3 if greater than 75% of the viable cells express GFP. GFP IC 50 is the concentration of an inhibitor that (like an IC50) is the dose at which the GFP expression level goes from g3 to g1/2.

DNMT1 = DNMT1 (Homo sapiens, UniProt P26358); experiment: Selective depletion of DNMT1 by Western blot in treated HCT116 cells; assay type: cell-based; set-up: Protein extracts (equivalent to 100 μg) were isolated from HCT116 cells; endogenous in cells; host or cells: HCT116; conditions: for % DNMT1 protein level remaining at 5 µM: HCT-116, 5 μM; for % DNMT1 protein level remaining at 10 µM: HCT-116, 10 μM; for % DNMT1 protein level remaining at 100 µM: HCT-116, 100 μM
From the text: Biol. 2005, 11, 4727-41.]. For DNMT1, commercially available antibodies from Santa Cruz or New England Biolabs were used.

Chain of DNMT1 (P26358 whole entry): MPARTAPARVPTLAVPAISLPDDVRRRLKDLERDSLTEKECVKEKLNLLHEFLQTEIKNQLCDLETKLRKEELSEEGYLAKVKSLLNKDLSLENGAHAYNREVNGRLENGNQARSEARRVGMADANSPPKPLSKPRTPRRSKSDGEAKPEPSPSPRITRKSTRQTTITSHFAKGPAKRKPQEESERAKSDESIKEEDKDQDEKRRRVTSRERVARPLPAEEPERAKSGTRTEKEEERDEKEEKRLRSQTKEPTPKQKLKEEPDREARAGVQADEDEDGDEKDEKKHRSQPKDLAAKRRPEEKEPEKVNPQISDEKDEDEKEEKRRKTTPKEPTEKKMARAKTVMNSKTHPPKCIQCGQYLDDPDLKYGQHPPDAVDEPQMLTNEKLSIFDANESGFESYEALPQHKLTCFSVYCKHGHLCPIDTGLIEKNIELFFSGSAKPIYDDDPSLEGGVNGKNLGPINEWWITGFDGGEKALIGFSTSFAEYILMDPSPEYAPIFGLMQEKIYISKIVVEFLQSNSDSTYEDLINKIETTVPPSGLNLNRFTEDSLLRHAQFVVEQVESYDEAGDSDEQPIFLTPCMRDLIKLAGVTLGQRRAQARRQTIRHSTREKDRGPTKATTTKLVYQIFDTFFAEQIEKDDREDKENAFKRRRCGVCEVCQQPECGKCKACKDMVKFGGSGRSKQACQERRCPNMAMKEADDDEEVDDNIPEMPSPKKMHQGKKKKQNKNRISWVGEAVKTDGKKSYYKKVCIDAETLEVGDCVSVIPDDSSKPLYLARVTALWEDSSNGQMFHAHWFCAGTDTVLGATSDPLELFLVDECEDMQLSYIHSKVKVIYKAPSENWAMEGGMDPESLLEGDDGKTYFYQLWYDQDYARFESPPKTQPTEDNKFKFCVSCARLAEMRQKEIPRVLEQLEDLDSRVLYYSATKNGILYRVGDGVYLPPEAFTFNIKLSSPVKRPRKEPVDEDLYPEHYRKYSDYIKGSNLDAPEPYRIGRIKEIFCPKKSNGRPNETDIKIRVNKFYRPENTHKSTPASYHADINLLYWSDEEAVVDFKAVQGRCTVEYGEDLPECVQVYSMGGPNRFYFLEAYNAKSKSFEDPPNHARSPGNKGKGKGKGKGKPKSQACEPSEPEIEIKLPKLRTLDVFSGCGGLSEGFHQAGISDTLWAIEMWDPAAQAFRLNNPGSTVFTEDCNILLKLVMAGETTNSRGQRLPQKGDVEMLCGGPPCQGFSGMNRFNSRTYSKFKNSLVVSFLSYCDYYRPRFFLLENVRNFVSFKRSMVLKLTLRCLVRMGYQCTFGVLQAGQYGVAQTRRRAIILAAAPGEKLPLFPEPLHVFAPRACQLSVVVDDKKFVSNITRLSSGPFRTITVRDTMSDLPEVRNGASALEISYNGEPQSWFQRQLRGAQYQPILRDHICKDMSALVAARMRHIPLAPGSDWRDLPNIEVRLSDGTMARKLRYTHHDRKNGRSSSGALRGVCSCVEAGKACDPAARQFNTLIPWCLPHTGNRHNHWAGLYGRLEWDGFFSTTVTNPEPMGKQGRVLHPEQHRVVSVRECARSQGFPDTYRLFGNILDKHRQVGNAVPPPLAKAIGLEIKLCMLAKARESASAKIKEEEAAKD

melting point	% DNMT1 protein level remaining at 5 µM (DNMT1) [%]	% DNMT1 protein level remaining at 10 µM (DNMT1) [%]	Compound	other results
			1-methyl-4-[4-(4-{7-nitroquinolin-4-ylamino}benzamido)-phenylamino]pyridinium dichloride [Cpd. S]	TD50 (CMV-EE210 cell line): 25 µM; % DNMT1 Level (DNMT1; 5 μM): 87%; % DNMT1 Level (DNMT1; 10 μM): 101%; % DNMT1 Level (DNMT1; 100 μM): 69%
> 300 °C			Nc1cc(Nc2cccc(C(=O)Nc3ccc(Nc4ccnc5ccccc45)cc3)c2)nc(N)n1 (as salt: hydrochloride) [Cpd. FF2, 3-[(2,6-Diamino-4-pyrimidinyl)amino]-N-[4-(4-quinolinylamino)-phenyl]benzamide dihydrochloride]	
183 to 187 °C			C[n+]1ccc(Nc2ccc(NC(=O)c3ccc(Nc4ccnc5ccc([N+](=O)[O-])cc45)cc3)cc2)cc1 (as salt: hydrochloride) [Cpd. G, 1-methyl-4-(4-(4-(6-nitroquinolin-4-ylamino)benzamido)phenylamino)pyridinium chloride hydrochloride]	
257 to 262 °C and 257 to 261 °C			Cc1cc(Nc2ccc(C(=O)Nc3ccc(Nc4ccnc5cc(N)ccc45)cc3)cc2)nc(N)n1 (as salt: hydrochloride) [Cpd. GG2, 4-[(2-Amino-6-methyl-4-pyrimidinyl)amino]-N-{4-[(7-amino-4-quinolinyl)amino]phenyl}benzamide dihydrochloride]	
> 300 °C			Cc1cc(Nc2ccc(C(=O)Nc3ccc(Nc4ccnc5ccc(N)cc45)cc3)cc2)nc(N)n1 (as salt: hydrochloride) [Cpd. GG3, 4-[(2-amino-6-methyl-4-pyrimidinyl)amino]-N-{4-[(6-amino-4-quinolinyl)amino]phenyl}benzamide dihydrochloride]	
295 to 300 °C			Cc1cc(Nc2ccc(C(=O)Nc3ccc(Nc4ccnc5ccc([N+](=O)[O-])cc45)cc3)cc2)nc(N)n1 (as salt: hydrochloride) [Cpd. GG4, 4-[(2-Amino-6-methyl-4-pyrimidinyl)amino]-N-{4-[(6-nitro-4-quinolinyl)amino]phenyl}benzamide dihydrochloride]	
> 300 °C			Cc1cc(Nc2ccc(C(=O)Nc3ccc(Nc4ccnc5cc([N+](=O)[O-])ccc45)cc3)cc2)nc(N)n1 (as salt: hydrochloride) [Cpd. GG5, 4-[(2-Amino-6-methyl-4-pyrimidinyl)amino]-N-{4-[(7-nitro-4-quinolinyl)amino]phenyl}benzamide dihydrochloride]	
> 300 °C			Cc1cc(Nc2ccc(C(=O)Nc3ccc(Nc4ccnc5ccc(N(C)C)cc45)cc3)cc2)nc(N)n1 (as salt: hydrochloride) [Cpd. HH, 4-[(2-amino-6-methyl-4-pyrimidinyl)amino]-N-(4-{[6-(dimethylamino)-4-quinolinyl]amino}phenyl)benzamide dihydrochloride]	
> 280 °C			Cc1cc(Nc2ccc(NC(=O)c3ccc(Nc4ccnc5c(F)c(F)c(F)cc45)cc3)cc2)nc(N)n1 (as salt: hydrochloride) [Cpd. KK, n-[4-(2-amino-6-methylpyrimidin-4-ylamino)phenyl]-4-(6,7,8-trifluoroquinolin-4-ylamino)benzamide dihydrochloride]	
> 280 °C			C/C(=N\N=C(N)N)c1ccc(NC(=O)c2ccc(Nc3ccnc4ccc(N(C)C)cc34)cc2)cc1 (as salt: hydrochloride) [Cpd. NN, (E)-N-(4-(1-((Diaminomethylene)hydrazono)ethyl)phenyl)-4-(6-(dimethylamino)quinolin-4-ylamino)benzamide Dihydrochloride]	
> 300 °C			C/C(=N\N=C(N)N)c1ccc(C(=O)Nc2ccc(Nc3ccnc4ccc(N(C)C)cc34)cc2)cc1 (as salt: hydrochloride) [Cpd. PP, 4-[(1E)-N-(diaminomethylene)ethanehydrazonoyl]-N-(4-{[6-(dimethylamino)-4-quinolinyl]amino}phenyl)benzamide dihydrochloride]	
> 300 °C			Nc1cc(Nc2cccc(C(=O)Nc3ccc(Nc4ccnc5ccc([N+](=O)[O-])cc45)cc3)c2)nc(N)n1 (as salt: hydrochloride) [Cpd. RR1, 3-[(2,6-diamino-4-pyrimidinyl)amino]-N-{4-[(6-nitro-4-quinolinyl)amino]phenyl}benzamide dihydrochloride]	
> 300 °C			Cc1cc(Nc2cccc(C(=O)Nc3ccc(Nc4ccnc5ccc([N+](=O)[O-])cc45)cc3)c2)nc(N)n1 (as salt: hydrochloride) [RR2, 3-[(2-amino-6-methyl-4-pyrimidinyl)amino]-N-{4-[(6-nitro-4-quinolinyl)amino]phenyl}benzamide dihydrochloride]	
280 to 284 °C			Cc1cc(Nc2cccc(C(=O)Nc3ccc(Nc4ccnc5ccc(N)cc45)cc3)c2)nc(N)n1 (as salt: hydrochloride) [RR3, 3-[(2-Amino-6-methyl-4-pyrimidinyl)amino]-N-{4-[(6-amino-4-quinolinyl)amino]phenyl}benzamide dihydrochloride]	
			CN(C)c1ccc2c(Nc3ccc(NC(=O)c4ccc(Nc5cc[n+](C)cc5)cc4)cc3)ccnc2c1.Cl.[Cl-] [Cpd. DD, 7-(dimethylamino)-4-[4-({4-[(1-methyl-4-pyridiniumyl)amino]benzoyl}amino)aniline]quinolinium dichloride]	TD50 (CMV-EE210 cell line): 25 µM; % DNMT1 Level (DNMT1; 5 μM): 90%; % DNMT1 Level (DNMT1; 10 μM): 74%; % DNMT1 Level (DNMT1; 100 μM): 52%
250 to 254 °C	70	15	Cc1cc(Nc2ccc(NC(=O)c3ccc(Nc4ccnc5ccc(Cl)cc45)cc3)cc2)nc(N)n1 [Cpd. LL, N-[4-(2-amino-6-methylpyrimidin-4-ylamino)phenyl]-4-(6-chloroquinolin-4-ylamino)benzamide]	
170 to 173 °C	25	15	CN(C)c1ccc2nccc(Nc3ccc(NC(=O)c4cccc(Nc5cc[n+](C)cc5)c4)cc3)c2c1 [Cpd. OO1, 6-(dimethylamino)-4-[4-({3-[(1-methyl-4-pyridiniumyl)amino]benzoyl}amino)anilino]-quinolinium dichloride]	
156 °C (dec.)	50	95	CN(C)c1ccc2nccc(Nc3ccc(NC(=O)c4ccc(Nc5cc[n+](C)cc5)cc4)cc3)c2c1 [Cpd. OO2, 6-(Dimethylamino)-4-[4-({4-[(1-methyl-4-pyridiniumyl)amino]benzoyl}amino)-anilino]quinolinium dichloride]	
242 to 245 °C	45	75	C[n+]1ccc(Nc2ccc(NC(=O)c3ccc(Nc4ccnc5cc(N)ccc45)cc3)cc2)cc1 [Cpd. W, 1-methyl-4-[4-(4-{7-aminoquinolin-4-ylamino}benzamido)-phenylamino]pyridinium dichloride]	

Compound	melting point	% DNMT1 protein level remaining at 5 µM (DNMT1) [%]	% DNMT1 protein level remaining at 10 µM (DNMT1) [%]	other results
Cc1cc(Nc2ccc(NC(=O)c3ccc(Nc4ccnc5ccc([N+](=O)[O-])cc45)cc3)cc2)nc(N)n1 (as salt: hydrochloride) [Cpd. H, N-(4-(2-amino-6-methylpyrimidin-4-ylamino)phenyl)-4-(6-nitroquinolin-4-ylamino)benzamide hydrochloride]	301 to 305 °C			
C[n+]1ccc(Nc2cccc(NC(=O)c3ccc(Nc4ccnc5ccccc45)cc3)c2)cc1 [Cpd. A, 1-methyl-4-(3-{[4-(4-quinolinylamino)benzoyl]amino}anilino)pyridinium chloride]		99	117	TD50 (CMV-EE210 cell line): 12.5 µM; % DNMT1 protein level remaining at 100 µM (DNMT1): 119%
C[n+]1ccc(Nc2ccc(NC(=O)c3ccc(Nc4ccnc5ccccc45)cc3)cc2)cc1 [Cpd. B, 1-methyl-4-(4-(4-(quinolin-4-ylamino)benzamido)phenylamino)pyridinium chloride hydrochloride]		102	98	TD50 (CMV-EE210 cell line): 25 µM; % DNMT1 protein level remaining at 100 µM (DNMT1): 81%
C[n+]1ccc(Nc2cccc(NC(=O)c3ccc(Nc4ccnc5ccc([N+](=O)[O-])cc45)cc3)c2)cc1 [Cpd. F, 1-methyl-4-(3-{[4-(6-nitro-4-quinolinylamino)benzoyl]amino}anilino)pyridinium chloride]		145	210	TD50 (CMV-EE210 cell line): 25 µM; % DNMT1 protein level remaining at 100 µM (DNMT1): 155%

— patent US7939546B2, “Quinoline derivatives for modulating DNA methylation” (SuperGen, Inc., priority 2007, dated 2011)
